Data on five compounds can be found in patent US6417359B1, “Pharmaceutical compositions and methods for use” (priority 1998, dated 2002).

Broadly, the Emax is the maximal effect, on the per cent scale that the assay sets. A word on the EC50: it is the concentration that produces a half-maximal response. Lower therefore signals an effect from little substance. One may read the IC50 as the point on the concentration scale where inhibition reaches its midpoint. High values mean lower potency, low ones higher potency.

One experiment addresses muscle-type receptors (Homo sapiens, UniProt P02708+P07510+P11230+Q07001). Kind of experiment: Determination of interaction with muscle receptors. The settings on record: percentage of maximal activation induced by (S)-(−)-nicotine. Type of experiment: cell-based. How it is done:
Determination of Interaction with Muscle Receptors
The determination of the interaction of the compounds with muscle receptors was carried out in accordance with the techniques described in U.S. Pat. No. 5,597,919 to Dull et al. The maximal activation for individual compounds (Emax) was determined as a percentage of the maximal activation induced by (S)-(−)-nicotine. Reported Emax values represent the amount released relative to (S)-(−)-nicotine on a percentage basis.

For experiment [1], the system named is nicotinic receptors associated with dopamine release. The experiment can be described thus: Dopamine release (receptor activation/inhibition). Type of experiment: biochemical. The note with it: for Emax, dopamine release: amount released relative to (S)-(−)-nicotine. How it is done:
Determination of Receptor Activation/Inhibition and Dopamine Release
Dopamine release was measured using the techniques described in U.S. Pat. No. 5,597,919 to Dull et al. Release is expressed as a percentage of release obtained with a concentration of (S)-(−)-nicotine resulting in maximal effects. Reported EC50 values are expressed in nM, and Emax values represent the amount released relative to (S)-(−)-nicotine or tetramethylammonium ion (TMA), on a percentage basis.
Reported IC50 values are expressed in nM and represent the concentration resulting in 50% inhibition of agonist induced receptor activation. Emax values represent the amount released relative to (S)-(−)-nicotine on a percentage basis.

The next experiment has as its system ganglia-type receptors. The experiment can be described thus: Determination of interaction with ganglion receptors. Type of experiment: cell-based. The settings on record: percentage of maximal activation induced by (S)-(−)-nicotine. As to the method:
Determination of Interaction with Ganglion Receptors The determination of the interaction of the compounds with ganglionic receptors was carried out in accordance with the techniques described in U.S. Pat. No. 5,597,919 to Dull et al. The maximal activation for individual compounds (Emax) was determined as a percentage of the maximal activation induced by (S)-(−)-nicotine. Reported Emax values represent the amount released relative to (S)-(−)-nicotine on a percentage basis.

muscle-type receptors, sequence (P02708 whole entry): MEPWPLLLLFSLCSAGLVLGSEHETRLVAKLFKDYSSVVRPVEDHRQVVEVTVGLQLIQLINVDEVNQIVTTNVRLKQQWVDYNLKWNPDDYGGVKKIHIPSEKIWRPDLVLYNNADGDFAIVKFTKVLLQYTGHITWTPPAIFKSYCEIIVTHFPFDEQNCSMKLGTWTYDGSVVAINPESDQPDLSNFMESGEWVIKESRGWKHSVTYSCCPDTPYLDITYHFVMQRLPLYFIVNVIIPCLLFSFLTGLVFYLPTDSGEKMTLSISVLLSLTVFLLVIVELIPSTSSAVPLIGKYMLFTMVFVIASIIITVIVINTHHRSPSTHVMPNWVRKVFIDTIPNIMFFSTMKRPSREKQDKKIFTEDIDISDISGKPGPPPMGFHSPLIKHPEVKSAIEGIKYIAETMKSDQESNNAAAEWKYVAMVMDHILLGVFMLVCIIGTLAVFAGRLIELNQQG
muscle-type receptors, sequence (P11230 24-501): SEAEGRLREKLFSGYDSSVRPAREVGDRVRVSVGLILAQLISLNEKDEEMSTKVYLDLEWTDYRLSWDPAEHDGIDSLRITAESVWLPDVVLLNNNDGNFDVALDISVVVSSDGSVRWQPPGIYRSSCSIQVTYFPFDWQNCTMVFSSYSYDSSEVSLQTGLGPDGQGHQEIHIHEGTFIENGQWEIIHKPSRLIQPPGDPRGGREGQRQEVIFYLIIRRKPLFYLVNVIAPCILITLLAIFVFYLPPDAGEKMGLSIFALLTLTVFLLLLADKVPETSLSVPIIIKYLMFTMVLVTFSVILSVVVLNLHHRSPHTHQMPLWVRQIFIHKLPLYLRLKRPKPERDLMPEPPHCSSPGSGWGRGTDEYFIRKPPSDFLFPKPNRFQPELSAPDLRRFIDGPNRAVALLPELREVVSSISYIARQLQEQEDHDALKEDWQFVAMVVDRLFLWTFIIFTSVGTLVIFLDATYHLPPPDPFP
muscle-type receptors, sequence (P07510 23-517): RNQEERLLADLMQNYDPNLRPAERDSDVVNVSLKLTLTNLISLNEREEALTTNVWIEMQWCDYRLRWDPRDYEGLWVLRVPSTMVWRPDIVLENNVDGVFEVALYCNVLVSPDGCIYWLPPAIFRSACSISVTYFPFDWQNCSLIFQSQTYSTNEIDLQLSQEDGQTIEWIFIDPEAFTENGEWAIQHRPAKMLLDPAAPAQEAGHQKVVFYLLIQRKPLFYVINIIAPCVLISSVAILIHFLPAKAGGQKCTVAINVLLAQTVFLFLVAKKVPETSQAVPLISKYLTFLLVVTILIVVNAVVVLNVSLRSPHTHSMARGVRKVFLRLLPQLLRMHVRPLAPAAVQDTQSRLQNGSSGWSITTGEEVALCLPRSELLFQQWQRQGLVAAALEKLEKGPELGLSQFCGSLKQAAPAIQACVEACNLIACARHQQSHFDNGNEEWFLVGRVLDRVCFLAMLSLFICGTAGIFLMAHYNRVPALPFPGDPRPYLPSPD
muscle-type receptors, sequence (Q07001 22-517): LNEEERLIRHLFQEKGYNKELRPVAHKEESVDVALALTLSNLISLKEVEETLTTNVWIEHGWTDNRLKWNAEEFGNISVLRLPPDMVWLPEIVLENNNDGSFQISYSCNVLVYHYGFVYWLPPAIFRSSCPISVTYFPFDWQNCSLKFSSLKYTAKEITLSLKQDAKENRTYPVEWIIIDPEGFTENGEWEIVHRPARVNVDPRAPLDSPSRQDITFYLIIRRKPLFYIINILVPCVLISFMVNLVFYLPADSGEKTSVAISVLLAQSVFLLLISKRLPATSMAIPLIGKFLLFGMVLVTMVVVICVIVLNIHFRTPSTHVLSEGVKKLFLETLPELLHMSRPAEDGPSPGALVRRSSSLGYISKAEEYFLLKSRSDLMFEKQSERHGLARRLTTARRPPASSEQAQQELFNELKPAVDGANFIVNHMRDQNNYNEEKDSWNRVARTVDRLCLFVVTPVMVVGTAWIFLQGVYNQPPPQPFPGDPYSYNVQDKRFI

`c1cncc(C2C3CC4CC(C3)CN2C4)c1` (centres unmarked) [Sample No. 1, 1-aza-2-(3-pyridyl)-tricyclo[3.3.1.1^3,7]decane] showed an Emax on muscle-type receptors of 21%. In addition, the “Emax, dopamine release” value in experiment [1] was determined as 0%. Also, the “Emax at ganglia-type receptors” value in the experiment with ganglia-type receptors stood at 27%.
`Brc1cncc(C2C3CC4CC(C3)CN2C4)c1` (centres unmarked) [Sample No. 2, 1-aza-2-[5-bromo(3-pyridyl)]tricyclo[3.3.1.1^3,7]decane] registered an Emax on muscle-type receptors of 32%. Moreover, in experiment [1], the EC50 is greater than 100 µM and the “Emax, dopamine release” value was 0%. Moreover, the “Emax at ganglia-type receptors” value with ganglia-type receptors is reported as 50%.
The like results for `Cl.Cl.Cl.Nc1cncc(C2C3CC4CC(C3)CN2C4)c1` (centres unmarked) [Sample No. 3, 1-aza-2-[5-amino-(3-pyridyl)]tricyclo[3.3.1.1^3,7]decane trihydrochloride] were, in that order, 75%, greater than 100 µM, 0% and 17%.
The compound `CCOc1cncc(C2C3CC4CC(C3)CN2C4)c1` (centres unmarked) [Sample No. 4, 1-aza-2-[5-ethoxy-(3-pyridyl)]-tricyclo-[3.3.1.1^3,7]decane] returned an Emax at muscle-type receptors of 22%. Besides, in experiment [1], the EC50 is greater than 100 µM and the “Emax, dopamine release” value was 0%. For the same compound, in experiment [1] (concentration resulting in 50% inhibition of agonist induced receptor activation), the half-maximal inhibitory concentration (IC50) stood at 846 nM. Moreover, in the experiment with ganglia-type receptors, the “Emax at ganglia-type receptors” value was 0%.
In the case of `CC(C)Oc1cncc(C2C3CC4CC(C3)CN2C4)c1` (centres unmarked) [Sample No. 5, 1-aza-2-[5-isopropoxy-(3-pyridyl)]tricyclo[3.3.1.1^3,7]decane], the Emax at muscle-type receptors was determined as 114%. In addition, in experiment [1], the EC50 was greater than 100 µM and the “Emax, dopamine release” value is recorded as 0%. For the same compound, the maximal response (Emax) at ganglia-type receptors with ganglia-type receptors is given as 7%.
